From US9212151B2, “Heterocyclic compounds useful for kinase inhibition” (Amitech Therapeutic Solutions, Inc., priority 2010, dated 2015)

Test: MTT cell viability assay, compounds at 5, 1 and 0.2 μM, 48 hours
Type: cell-based
Conditions: human, A549 tumor cells
Experimental: MTT assay is used to determine cell proliferation, percent of viable cells, and cytotoxicity. MTT (3-[4,5-dimethylthiazol-2-yl]2,5-diphenyltetrazolium bromide) is a yellow dye, which can be absorbed by the living cells and be reduced to purplish blue formazan crystals by succinate tetrazolium reductase in mitochondria. Formazan formation can therefore be used to assess and determine the survival rate of cells.
Tumor cells (A549) were plated at 2500 cells/well of a 96-well plate in complete growth medium (DMEM+10% FBS, antibiotic/antimycotic, fungizone, L-glutamine, sodium pyruvate, and non-essential amino acids). The cells were allowed to grow overnight. After cell proliferation, the cells were washed and re-suspended in fresh culture medium and placed in 96 well plates.
To each of the 96 well plates containing A549 and a control, 5, 1, and 0.2 μM of the exemplary compounds 1-200 were add. The 96 well plates were incubated for 48 hours. Cell viability was measured by adding MTT (Sigma) at 5 mg/ml for 4 h to the cells and then removing the medium and resuspending each well in 50 μl DMSO to solubilize the crystals. The 96-well plates were read on a plate-scanning spectrophotometer (BioTek) at an absorbance of […]. The survival rate of cells was calculated based on the measurement of absorption at the 570 nm wavelength by enzyme immunoassay analyzer.

Question: For `FC(F)(F)c1cccc(Nc2nnc(-c3cccc(Oc4ccnc5cc(C(F)(F)F)ccc45)c3)[nH]2)c1` [Compound 165], which viability at 48 h, 0.2 µM (0.2 μM) is on record?
Answer: > 70%

Question: What about the viability at 48 h, 1 µM (1 μM) of the same compound?
Answer: > 70%

Question: What about the viability at 48 h, 5 µM (5 μM) of the same compound?
Answer: > 70%

Question: Which viability at 48 h, 0.2 µM (0.2 μM) does the source give for `COc1cc(-c2nnc(Nc3cccc(C(F)(F)F)c3)[nH]2)ccc1Oc1ccncc1` [Compound 108] here?
Answer: > 70%

Question: And the viability at 48 h, 1 µM (1 μM)?
Answer: > 70%

Question: And the viability at 48 h, 5 µM (5 μM)?
Answer: < 50%

Question: What does the source list for `FC(F)(F)c1cccc(Nc2nnc(-c3ccc(Oc4cc(Cl)ccn4)cc3)[nH]2)c1` [Compound 5]?
Answer: viability at 48 h, 0.2 µM (0.2 μM): > 70%; viability at 48 h, 1 µM (1 μM): > 70%; viability at 48 h, 5 µM (5 μM): > 70%

Question: What does the source list for `COc1ccc2c(Oc3ccc(Nc4nnc(-c5cccc(Cl)c5)[nH]4)cc3)ccnc2c1` [Compound 198]?
Answer: viability at 48 h, 0.2 µM (0.2 μM compound): > 70%; viability at 48 h, 1 µM (1 μM compound): > 70%; viability at 48 h, 5 µM (5 μM compound): > 70%

Question: What does the source list for `FC(F)(F)Oc1ccc2c(Oc3cccc(-c4nnc(Nc5cccc(C(F)(F)F)c5)[nH]4)c3)ccnc2c1` [Compound 173]?
Answer: viability at 48 h, 0.2 µM (0.2 μM): > 70%; viability at 48 h, 1 µM (1 μM): > 70%; viability at 48 h, 5 µM (5 μM): > 70%

Question: Which results are given for `COc1nc(N)cc(Oc2cccc(-c3nnc(Nc4cccc(C(F)(F)F)c4)[nH]3)c2)n1` [Compound 89]?
Answer: viability at 48 h, 0.2 µM (0.2 μM): > 70%; viability at 48 h, 1 µM (1 μM): > 70%; viability at 48 h, 5 µM (5 μM): > 70%

Question: With `Nc1cc(Oc2cccc(-c3nnc(Nc4cccc(C(F)(F)F)c4)[nH]3)c2)c2ccccc2n1` [Compound 86] as the compound, how does the viability at 48 h, 0.2 µM (0.2 μM) read?
Answer: > 70%

Question: What about the viability at 48 h, 1 µM (1 μM) of the same compound?
Answer: > 70%

Question: And the viability at 48 h, 5 µM (5 μM)?
Answer: > 70%

Question: Which viability at 48 h, 0.2 µM (0.2 μM) does the source give for `FC(F)(F)c1cccc(Nc2nnc(-c3cccc(Oc4cncnc4)c3)[nH]2)c1` [Compound 101] here?
Answer: > 70%

Question: What about the viability at 48 h, 1 µM (1 μM) of the same compound?
Answer: > 70%

Question: What about the viability at 48 h, 5 µM (5 μM) of the same compound?
Answer: > 70%

Question: Which viability at 48 h, 0.2 µM (0.2 μM) does the source give for `CSc1nc(N)cc(Oc2ccc(-c3nnc(Nc4ccc5c(c4)CCC5)[nH]3)cc2)n1` [Compound 124] here?
Answer: > 70%

Question: And the viability at 48 h, 1 µM (1 μM)?
Answer: > 70%

Question: And the viability at 48 h, 5 µM (5 μM)?
Answer: < 50%

Question: What does the source list for `CSc1nc(N)cc(Oc2ccc(-c3nnc(Nc4cccc(OC(C)C)c4)[nH]3)cc2)n1` [Compound 134]?
Answer: viability at 48 h, 0.2 µM (0.2 μM): > 70%; viability at 48 h, 1 µM (1 μM): > 70%; viability at 48 h, 5 µM (5 μM): < 50%

Question: What does the source list for `COc1nc(Oc2cccc(-c3nnc(Nc4cccc(C(F)(F)F)c4)[nH]3)c2)c2cc[nH]c2n1` [Compound 92]?
Answer: viability at 48 h, 0.2 µM (0.2 μM): > 70%; viability at 48 h, 1 µM (1 μM): > 70%; viability at 48 h, 5 µM (5 μM): > 70%

Question: Which results are given for `CSc1nc(N)cc(Oc2ccc(-c3nnc(Nc4ccccc4C)[nH]3)cc2)n1` [Compound 154]?
Answer: viability at 48 h, 0.2 µM (0.2 μM): 50 to 70%; viability at 48 h, 1 µM (1 μM): < 50%; viability at 48 h, 5 µM (5 μM): < 50%

Question: For `CSc1nc(N)cc(Oc2ccc(-c3nnc(Nc4cccc(C#N)c4)[nH]3)cc2)n1` [Compound 128], which viability at 48 h, 0.2 µM (0.2 μM) is on record?
Answer: > 70%

Question: And the viability at 48 h, 1 µM (1 μM)?
Answer: > 70%

Question: And the viability at 48 h, 5 µM (5 μM)?
Answer: > 70%

Question: With `Fc1ccc2c(Oc3ccc(-c4nnc(Nc5cccc(C(F)(F)F)c5)[nH]4)cc3)ccnc2c1` [Compound 186] as the compound, how does the viability at 48 h, 0.2 µM (0.2 μM) read?
Answer: > 70%

Question: What about the viability at 48 h, 1 µM (1 μM) of the same compound?
Answer: > 70%

Question: What about the viability at 48 h, 5 µM (5 μM) of the same compound?
Answer: > 70%

Question: What does the source list for `CSc1nc(N)cc(Oc2ccc(-c3nnc(Nc4cc(C)cc(C)c4)[nH]3)cc2)n1` [Compound 123]?
Answer: viability at 48 h, 0.2 µM (0.2 μM): < 50%; viability at 48 h, 1 µM (1 μM): < 50%; viability at 48 h, 5 µM (5 μM): < 50%

Question: Which results are given for `COCCOc1nc(N)cc(Oc2ccc(-c3nnc(Nc4cccc(C(F)(F)F)c4)[nH]3)cc2)n1` [Compound 78]?
Answer: viability at 48 h, 0.2 µM (0.2 μM): > 70%; viability at 48 h, 1 µM (1 μM): > 70%; viability at 48 h, 5 µM (5 μM): < 50%

Question: Which results are given for `COc1nccc(Oc2ccc(-c3nnc(Nc4cccc(C(F)(F)F)c4)[nH]3)cc2)n1` [Compound 71]?
Answer: viability at 48 h, 0.2 µM (0.2 μM): > 70%; viability at 48 h, 1 µM (1 μM): > 70%; viability at 48 h, 5 µM (5 μM): 50 to 70%

Question: What does the source list for `COc1cc2ncnc(Oc3cccc(-c4nnc(Nc5cccc(C(F)(F)F)c5)[nH]4)c3)c2cc1OC` [Compound 170]?
Answer: viability at 48 h, 0.2 µM (0.2 μM): > 70%; viability at 48 h, 1 µM (1 μM): > 70%; viability at 48 h, 5 µM (5 μM): > 70%

Question: Which viability at 48 h, 0.2 µM (0.2 μM) does the source give for `FC(F)(F)c1cccc(Nc2nnc(-c3ccc(Oc4nccc(Cl)n4)cc3)o2)c1` [Compound 26] here?
Answer: > 70%

Question: And the viability at 48 h, 1 µM (1 μM)?
Answer: > 70%

Question: What about the viability at 48 h, 5 µM (5 μM) of the same compound?
Answer: > 70%

Question: Which viability at 48 h, 0.2 µM (0.2 μM) does the source give for `COc1ccc2c(Oc3ccc(Nc4nnc(-c5cccc(C(F)(F)F)c5)[nH]4)cc3)ccnc2c1` [Compound 175] here?
Answer: > 70%

Question: What about the viability at 48 h, 1 µM (1 μM) of the same compound?
Answer: > 70%

Question: And the viability at 48 h, 5 µM (5 μM)?
Answer: > 70%

Question: With `CSc1nc(N)cc(Oc2ccc(-c3nnc(Nc4ccc(Cl)c(C(F)(F)F)c4)[nH]3)cc2)n1` [Compound 66] as the compound, how does the viability at 48 h, 0.2 µM (0.2 μM) read?
Answer: > 70%

Question: And the viability at 48 h, 1 µM (1 μM)?
Answer: > 70%

Question: What about the viability at 48 h, 5 µM (5 μM) of the same compound?
Answer: < 50%

Question: With `FC(F)(F)c1cccc(Nc2nnc(-c3ccc(Oc4ccnc5cc(C(F)(F)F)ccc45)cc3)[nH]2)c1` [Compound 148] as the compound, how does the viability at 48 h, 0.2 µM (0.2 μM) read?
Answer: > 70%

Question: And the viability at 48 h, 1 µM (1 μM)?
Answer: > 70%

Question: And the viability at 48 h, 5 µM (5 μM)?
Answer: > 70%
